According to patent publication US12281084B2, “Acetyl-CoA synthetase 2 (ACSS2) inhibitors and methods using same” (The Wistar Institute, priority 2019, dated 2025):

Target: T1, recombinant human ACSS2 (Homo sapiens, UniProt Q9NR19)
T1 construct: purchased Origene TP304260
Experiment: ACSS2 biochemical assay (Transcreener AMP assay)
Settings: in vitro biochemical TranScreener assay; mean±S.D., n≥3 (FIG. 1C)
Description: ACSS2 enzyme activity was measured using the TRANSCREENER® TRF AMP/GMP assay (Bellbrook Labs). Recombinant ACSS2 was purchased from Origene. The assay was performed in white, opaque, low volume 384 well plates. Test compounds were diluted in 100% DMSO and then 100 nL of each dilution was transferred using the Janus MDT Nanohead to assay plates containing 3 μL ACSS2 (2.5 nM) in assay buffer (30 mM HEPES, pH 7.4, 140 mM NaCl, 2 mM MgCl2, 5 mM sodium acetate, 2 mM DTT, 0.005% Brij35). Three microliters of substrate mix containing 100 μM ATP and 10 μM coenzyme A was added to the plates followed by a 120 min incubation. The final concentrations of enzyme and substrates in the reaction mix was 1.25 nM ACSS2, 50 μM ATP, and 5 μM coenzyme A. After incubation, 3 μL of terbium conjugated AMP antibody and AMP tracer was added to the plates according to the methods described by BellBrook Labs. After an additional 30 min, the HTRF signal was measured using an Envision Plate reader. Data were normalized to % inhibition, where 100% inhibition is equal to the counts obtained in the absence of ACSS2, and 0% inhibition is equal to the counts obtained in the complete reaction including a DMSO control.
A robust biochemical screening assay was set up for testing compounds as potential ACSS2 inhibitors. […]

T1 sequence (Q9NR19 whole entry): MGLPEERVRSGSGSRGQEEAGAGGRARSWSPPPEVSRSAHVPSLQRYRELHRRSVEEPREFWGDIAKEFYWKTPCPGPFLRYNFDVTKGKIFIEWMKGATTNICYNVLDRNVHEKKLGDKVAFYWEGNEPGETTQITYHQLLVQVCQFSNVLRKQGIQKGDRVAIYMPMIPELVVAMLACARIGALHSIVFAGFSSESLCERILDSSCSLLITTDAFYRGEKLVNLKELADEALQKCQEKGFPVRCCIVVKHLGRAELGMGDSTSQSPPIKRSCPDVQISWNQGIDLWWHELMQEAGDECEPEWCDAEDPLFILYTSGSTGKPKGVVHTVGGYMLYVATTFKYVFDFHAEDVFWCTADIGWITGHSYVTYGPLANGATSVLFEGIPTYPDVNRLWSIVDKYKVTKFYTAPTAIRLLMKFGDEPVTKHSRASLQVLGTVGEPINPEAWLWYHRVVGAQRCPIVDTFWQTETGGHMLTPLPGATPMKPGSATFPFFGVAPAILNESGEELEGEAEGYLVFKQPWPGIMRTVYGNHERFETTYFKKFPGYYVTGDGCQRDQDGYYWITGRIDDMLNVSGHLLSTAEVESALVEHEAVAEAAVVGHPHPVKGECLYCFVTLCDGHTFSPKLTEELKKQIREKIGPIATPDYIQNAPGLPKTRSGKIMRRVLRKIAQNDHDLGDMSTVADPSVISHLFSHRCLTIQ

IC50: 1210 ± 128 nM
Structure (SMILES): COCCNC(=O)Nc1ccc2nc(-c3cccs3)c(-c3cccs3)nc2c1 [VY-3-249, 1-(2,3-di(thiophen-2-yl)quinoxalin-6-yl)-3-(2-methoxyethyl)urea]
